Results on 5 compounds are retold here after paper PMC11413854, “Reversible Control of Native GluN2B-Containing NMDA Receptors with Visible Light” (ACS Chemical Neuroscience, 2024).

The target in one experiment is GluN1/GluN2B NMDARs. The settings on record: cited from earlier work; for Ki or IC50: Sup. Fig. 2G, Ki or IC50 not specified.
In experiment [1] the target is T1, GluN1/GluN2B NMDA receptors (UniProt P35439+Q01097).
T1 construct: expressed in transfected cells; host or cells: Xenopus laevis oocytes (nuclear cDNA injection)
As to the kind of experiment: TEVC electrophysiology on Xenopus oocytes expressing wt GluN1/GluN2B NMDARs. It counts as cell-based, rat GluN1, mouse GluN2B. Particulars: theoretical dose-response curve of a pure cis population calculated from 365 and 350 nm PSS. The text has this: The activity of OptoNAM-3 was functionally monitored by electrophysiology on Xenopus oocytes (see Methods). To assess the light-dependent effect, we tested the activities of the dark PSS (mostly trans) and the UV PSS (mostly cis, see above) separately. For each concentration, we prepared a solution divided into two samples: one in which the compound was kept in the dark for the duration of the experiment (dark PSS state); and the other that was preilluminated with either 350 or 365 nm light (350 or 365 nm PSS) and then kept away from the light for the duration of the experiment in order to avoid photoisomerization of the compounds by ambient light (see Methods). […] We generated dose–response curves of OptoNAM-3 dark and UV PSS on wild-type (wt) GluN1/GluN2B NMDA receptors (Figure 3A) in the presence of saturating concentrations of agonists (100 μM glutamate and glycine).
We used cDNA coding for rat GluN1–1a (named GluN1 herein) (GenBank: U08261.1), rat GluN2A (GenBank: D13211.1), mouse GluN2B (GenBank: D10651.2), rat GluA1 flop (GenBank: M36418.2), and rat Myc-GluA2(Q)-flip (GenBank: AF164344.1) cloned into pcDNA3-based expression plasmids. GluK2 (GenBank: Z11548.1) corresponds to the fully RNA-edited version.[80] The GluN2B-ΔNTD construct is from ref[45] and GluN2B–N615K is from ref[81]. Single mutants GluN2B-Q110G and GluN1-L135H were from ref[19]. The GluA2 cDNA contains a Myc tag ([…]) fused between the signal peptide and the N-terminus sequences, and the GluA2 subunit is […] for its Q/R/N site (GluA2(Q)) to allow permeation of homomeric GluA2 receptors.[2] cDNAs coding for rat GluN2C (GenBank: M91563.1) and GluN2D subunits (GenBank: L31611.1) were in prK5 plasmids.
Oocytes from Xenopus laevis were used for heterologous expression of recombinant NMDA receptors studied using a two-electrode voltage clamp (TEVC). Female Xenopus laevis were housed and ovary bags harvested according to the European Union guidelines (husbandry authorizations #C75–05–31 and #D75–05–31; project authorizations #05137.02; and Apafis #28867–2020121814485893). Fragments of ovary bags were also purchased from the “Centre de Ressources Biologiques Xenopes” (now TEFOR, Paris Saclay, France) and from the European Xenopus Resource Center (EXRC, Portsmouth, UK). Xenopus laevis oocytes were harvested and prepared as previously described in ref[82].
Expression of recombinant NMDA receptors was obtained by oocyte nuclear coinjection of 37 nL of a mixture of cDNAs (at 30 ng/μL) coding for GluN1–1a and various GluN2 subunits (ratio 1:1). The protocol in ref[43] was followed for the expression of GluN1/GluN2A/GluN2B triheteromers. The oocytes were transferred in 96-well plates filled with Barth solution (in mM: 88 NaCl, 1 KCl, 0.33 Ca(NO3)2, 0.41 CaCl2, 0.82 MgSO4, 2.4 NaHCO3, and 7.5 HEPES, pH adjusted to 7.3 with NaOH), supplemented with gentamicin ([…]) and 50 μM APV, a selective NMDA receptor antagonist. Plates were then stored at 18 °C for 24 h for GluN1/GluN2A expression and for 48––72 h for the expression of GluN1/Glu2B, GluN1/GluN2A/GluN2B, and mutants.
TEVC recordings were performed 1–3 days following injection. TEVC recordings were performed using an Oocyte Clamp amplifier OC-725 (Warner Instruments) and computer-controlled via a 1440A Digidata (Molecular Devices). Currents were sampled at 100 Hz and low-pass-filtered at 20 Hz using an 8-pole Bessel filter (900 Series, Frequency Devices Inc.).

Experiment [2] concerns cultured cortical neurons at DIV 14. As to the kind of experiment: NMDA excitotoxicity test, neuronal survival by MTT. It is filed as cell-based, mouse. The settings on record: for neuronal survival: 5 µM inhibitor + 100 µM NMDA + 10 µM glycine; for % of survival, Mean: compound 5µM with NMDA 100µM, MTT A(540 nm) normalized to control (100) and NMDA alone (0). The text has this: We first investigated whether OptoNAM-3 could be used in the context of a patho-physiological process related to GluN1/GluN2B receptors. Overactivation of NMDARs induced by tonic exposure to glutamate or NMDA is well-known to trigger neuronal death.[6] GluN1/GluN2B receptors are thought to be the major player of this neurotoxicity, and GluN1/GluN2B antagonists have proven to be potent neuroprotectants in vitro and in vivo.[5],[15] To test the neuroprotective activity of OptoNAM-3 and its photodependence of action, we performed a protocol of excitotoxicity based on exposure to NMDA (100 μM) of cultured cortical neurons at DIV 14,[15] in the presence of OptoNAM-3. […] OptoNAM-3 in the dark, at a concentration of 5 μM, induced, like ifenprodil, an ∼50% increase in cell survival (Figure S4). […] OptoNAM-3 is therefore able to promote cell survival in neuron cultures in a photodependent manner.
Mice were housed in the IBENS rodent central facility duly accredited by the French Ministry of Agriculture. All experiments were performed in compliance with French and European regulations on care and protection of laboratory animals (EU Directive 2010/63, French Law 2013–118, February 6, 2013), and were approved by local ethics committees and by the French Ministry of Research and Innovation (authorization numbers #05137.02, APAFIS #28867-2020121814485893). Dissociated cultures of cortical neurons were prepared from mouse embryos at E18 as described previously.[84] After removing meninges, cortices were placed in ice-cold HBSS solution. Cell dissociation was performed individually for cortices of each embryo. Cortices were incubated in 2.5% trypsin at 37 °C for 7 min, rinsed three times with 37 °C phosphate buffer saline, and finally suspended in plating medium (Neurobasal Medium, supplemented with 0.5 mM L-glutamine, 1% B27 supplement, and penicillin/streptomycin). The neurons were further dissociated by trituration, and cells were plated on poly-D-lysine coated coverslips in 24-well culture dishes at a density of 3 × 10^5 cells per well for the excitotoxicity test and that of 1 × 10^5 cells per well for patch clamp experiments. Cultures were incubated at 37 °C in a humidified atmosphere of 5% CO2. Cells were fed by changing 1/2 medium to fresh Neurobasal medium every 4 days. For the excitotoxicity experiments, after 5 days in vitro, growth of non-neuronal cells was halted by a 24 h exposure to FDX ([…] 5-fluoro-2′-deoxyuridine). The cultures were used for experiments after 6 to 14 days in vitro (DIV6–8 for patch clamp experiments and DIV14 for excitotoxicity tests).
Excitotoxicity tests were performed 14 days after the culturing step as described in ref[15]. Just before the experiments, the neuronal medium was changed and the neurons incubated in the external patch recording solution (see above). Two replicates of 24 well plates containing cultured cortical neurons were exposed to the same 4 conditions, in which the following compounds were added to the medium: (1) glycine (10 μM) alone (control); (2) glycine (10 μM) + NMDA (100 μM); (3) glycine (10 μM) + NMDA (100 μM) + 5 μM ifenprodil; and (4) glycine (10 μM) + NMDA (100 μM) + 5 μM trans-OptoNAM-3 (dark). One of the two plates was exposed to UV light (Jena analytic US, UVP Hand-held UV lamp UVGL-58, power ∼1 mW) for 2 min. The two plates were then put back in the 37 °C incubator for 10 min. Agonist exposure was terminated by washing out the exposure solution with conditioned Neurobasal medium, prior to returning the dishes to the incubator for 24 h before assessment of neuronal death.
Overall neuronal cell death was determined 24 h after NMDA exposure by the MTT test. Mitochondrial and cytosolic dehydrogenases of living cells reduce the yellow tetrazolium salt (MTT) to produce a purple formazan dye that can be detected spectrophotometrically.[85] […]

SMILES strings stand for the structures. Entries after “also recorded” stand apart in the source; their conditions may differ. Where two headings read alike, the source gives them in different places.

T1 sequence (Q01097 27-1482, other chains not shown): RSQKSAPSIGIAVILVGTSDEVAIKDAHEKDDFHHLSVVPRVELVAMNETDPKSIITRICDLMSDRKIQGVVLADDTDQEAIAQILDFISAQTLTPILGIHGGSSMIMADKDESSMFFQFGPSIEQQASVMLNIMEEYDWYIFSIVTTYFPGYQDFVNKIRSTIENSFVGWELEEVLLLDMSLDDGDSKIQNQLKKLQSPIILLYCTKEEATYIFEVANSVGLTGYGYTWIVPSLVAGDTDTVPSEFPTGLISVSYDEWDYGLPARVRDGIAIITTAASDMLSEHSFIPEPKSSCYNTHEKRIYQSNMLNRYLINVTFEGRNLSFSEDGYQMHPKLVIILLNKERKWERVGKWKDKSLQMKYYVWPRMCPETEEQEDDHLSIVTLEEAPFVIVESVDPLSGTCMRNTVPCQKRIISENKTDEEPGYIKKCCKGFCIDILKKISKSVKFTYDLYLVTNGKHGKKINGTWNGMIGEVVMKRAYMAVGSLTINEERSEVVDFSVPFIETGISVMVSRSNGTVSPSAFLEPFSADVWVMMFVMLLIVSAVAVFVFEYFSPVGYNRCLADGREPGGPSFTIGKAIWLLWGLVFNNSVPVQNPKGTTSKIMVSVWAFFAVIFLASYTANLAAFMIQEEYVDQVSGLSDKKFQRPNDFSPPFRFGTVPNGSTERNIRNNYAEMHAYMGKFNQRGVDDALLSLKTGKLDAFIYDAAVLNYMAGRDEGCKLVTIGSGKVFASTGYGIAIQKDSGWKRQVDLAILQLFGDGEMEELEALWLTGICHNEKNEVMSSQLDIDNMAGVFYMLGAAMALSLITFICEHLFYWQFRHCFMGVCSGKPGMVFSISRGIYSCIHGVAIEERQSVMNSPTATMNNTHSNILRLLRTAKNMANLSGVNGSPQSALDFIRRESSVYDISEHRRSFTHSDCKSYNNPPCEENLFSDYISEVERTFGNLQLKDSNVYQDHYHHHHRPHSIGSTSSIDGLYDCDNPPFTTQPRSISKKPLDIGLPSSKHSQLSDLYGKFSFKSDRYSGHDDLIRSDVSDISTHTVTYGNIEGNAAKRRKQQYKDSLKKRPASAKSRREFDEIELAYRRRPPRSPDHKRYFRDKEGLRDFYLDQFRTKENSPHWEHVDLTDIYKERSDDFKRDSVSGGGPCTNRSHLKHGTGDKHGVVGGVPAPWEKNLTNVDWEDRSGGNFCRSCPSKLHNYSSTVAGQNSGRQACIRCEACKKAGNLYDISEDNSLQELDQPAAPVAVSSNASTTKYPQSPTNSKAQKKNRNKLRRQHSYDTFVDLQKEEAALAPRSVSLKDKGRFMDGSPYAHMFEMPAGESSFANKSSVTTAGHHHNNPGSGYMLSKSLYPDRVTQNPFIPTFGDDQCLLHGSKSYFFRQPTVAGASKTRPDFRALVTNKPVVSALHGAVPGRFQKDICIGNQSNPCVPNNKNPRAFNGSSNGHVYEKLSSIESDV

As for `Nc1ccnc(N2CCc3ccccc3C2)c1` [9n = Compound 1], the Ki or IC50 on GluN1/GluN2B NMDARs (ref: ref. 39) was 3 nM.

`c1ccc(/N=N\c2ccc(CCNc3ccncc3)cc2)cc1` [cis-OptoNAM-3]: in experiment [1], the “activity of the cis isomer on GluN1/GluN2B NMDARs” value was “inactive”.

As for `CC(C(O)c1ccc(O)cc1)N1CCC(Cc2ccccc2)CC1` (stereo not drawn) [ifenprodil], the neuronal survival result was “not affected; also recorded: No photodependent effect” in experiment [2] (2 min UV (365 nm), normalized to control and NMDA); 60% in experiment [2] (dark, normalized to control (100%) and NMDA (0%)). Further, the “% of survival, Mean” value came to 59.345% in experiment [2] (Dark) and 59.393% in experiment [2] (UV).

Consider `Nc1ccnc(N2CCc3ccccc3C2)c1` [parent compound 1], for which, at GluN1/GluN2B NMDARs (ref 3 (SI), read-out: Parent compound Ki), the Ki is 3 nM.

Turning to `Cc1cc(N)nc(/C=C/c2ccccc2)c1` [parent compound 2], the Ki or IC50 at GluN1/GluN2B NMDARs (ref: ref. 40) is 10 nM. Besides, the concentration for half-maximal inhibition (IC50) in the experiment with GluN1/GluN2B NMDARs (ref 2,6 (SI), read-out: Parent compound IC50) was 10 nM.
